Assay results from patent US20070208074A1, “Methods and compositions for treating and preventing tumors” (priority 2006, published 2007).

What was measured:
U87-S3C cells = test: Cell spreading assay on myelin; format: cell-based; conditions: recombinant human IL-8 50 ng/ml vs untreated U87-S3C cells on myelin; n=3, p<0.0005
Method: FIG. 4I is a graph quantifying the level of normalized cell spreading. IL-8 addition rescues STAT3 suppression of glioma cell spreading on myelin.
1×10^4 cells were seeded onto glass coverslips pre-coated with polyornithine ([…]) and additionally coated with PBS or 20 μg/ml myelin. Where indicated recombinant human IL-8 (R&D) was added at a concentration of 50 ng/ml. Cells were incubated at 37° C. for 1 hour to attach and then fixed with 4% paraformaldehyde for 20 minutes at RT. Coverslips were stained with phallotoxin for 20 minutes according to the manufacturer's directions (Molecular probes). Nuclei were counterstained with 0.2 μg/ml Hoechst (Sigma). Spread versus unspread cells were counted blind, and a percentage of spread cells over the total number of cells calculated. Pictures were taken at 60× using a Nikon inverted microscope.

rat neural stem cells = test: BrdU incorporation with LIF; format: cell-based; conditions: LIF 10 ng/ml, 48 hrs; vector-infected cells vs no treatment; n=3, p<0.05
Method: FIG. 2E (right panel) is a bar graph showing BrdU incorporation in rat neural stem cells treated with LIF (10 ng/ml, 48 hrs) following infection with lentivirus and selection with puromycin.

SF188 cells = test: Growth curve / population growth with LIF; format: cell-based, human
Method: (§1) FIG. 2B is a series of graphs showing growth curves of PTEN-mutant glioma cell lines (U87 and A172) and PTEN-expressing (SF188) glioma cells lines that were treated with LIF (10 ng/ml daily) or left untreated.
FIG. 2C is a bar graph showing the population growth of SF188 cells infected with a retrovirus containing an IRES-GFP cassette alone or that also encodes wild type STAT3 or a dominant negative STAT3 (S3D).

[1] = tested on: control neuroblastoma cell line SK-N-MC; test: LIF-induced STAT3 tyrosine phosphorylation, immunoblot; format: cell-based; conditions: serum starved 24 hours, 10 ng/ml LIF for 15 minutes
[2] = tested on: wild type PTEN-expressing glioma cells (SF188 and LN229); test: as above; format: cell-based, human; conditions: serum starved 24 hours, 10 ng/ml LIF for 15 minutes
Method: (§2) FIG. 2A is a series of immunoblots showing the levels of PYS3 and STAT3 in glioma cells that harbor PTEN mutations (U87, A172, and U138) or that express wild type PTEN (SF188 and LN229) with the STAT3 and PYS3 antibodies. Cells were serum starved for 24 hours and then treated with 100 ng/ml CNTF (C) or 10 ng/ml LIF (L) for 15 minutes.
(§3) The inhibition of the STAT3 signaling pathway was also evident in human glioma cell lines that harbor PTEN mutations.

[3] = tested on: PTEN-deficient glioma cells (U87, A172, and U138); test: as above; format: cell-based, human; conditions: serum starved 24 hours, 10 ng/ml LIF for 15 minutes
Method: as §2, §3

LN229 cells = test: Population growth with LIF after lentiviral infection; format: cell-based, human; conditions: LIF 10 ng/ml daily; control lentivirus-infected LN229; n=3, p<0.05
Description: FIG. 2D is a pair of immmunoblots showing STAT3 and actin levels in 293T cells infected with either control lentivirus or lentivirus encoding one of two small interfering hairpin RNAs directed at STAT3 and selected with puromycin (left panel). […] The right panel is a graph showing population growth of LN229 cells infected with control lentivirus or lentivirus encoding stat3i1 or stat3i2 and selected with puromycin.
Recombinant retroviruses were made by transfecting 293T cells with pMD.MLV gag.pol, pHDM.G (VSVG pseudotype), and the transfer plasmid (i.e. pBABE). Cells were infected with equal amounts of retroviruses in the presence of 8 μg/ml polybrene (Sigma). A population of infected cells for each construct was collected by sorting cells for GFP expression. PTEN−/− astrocytes were infected with pBABE or pBABE/S3C retroviruses and infected cells were selected with puromycin (4 μg/ml). PTEN flox/flox astrocytes were infected with MyrAkt and infected cells were selected with 250 μg/ml hygromycin (Invitrogen). Cloning of recombinant lentiviruses coding for a short hairpin RNA directed against STAT3 or human IL-8 was carried out using the pLL3.7 vector. […]

A172 cells = test: Growth curve with LIF; format: cell-based, human; conditions: LIF 10 ng/ml daily; PTEN-deficient cell line
Method: as §1

U87 cells = test: Growth curve with LIF; format: cell-based, human; conditions: LIF 10 ng/ml daily; PTEN-deficient cell line
Method: as §1

| Substance | cell spreading on myelin (U87-S3C cells) | BrdU incorporation (rat neural stem cells) | cell population growth (SF188 cells; LIF 10 ng/ml daily vs untreated, n=3, p<0.05) | population growth (SF188 cells; LIF 10 ng/ml daily, SF188 infected with control-vector or wild type STAT3 retrovirus, n=3, p<0.01) | STAT3 tyrosine phosphorylation [1] | STAT3 tyrosine phosphorylation [2] | STAT3 tyrosine phosphorylation [3] | population growth (LN229 cells) | proliferation (A172 cells) | proliferation (U87 cells) |
| --- | --- | --- | --- | --- | --- | --- | --- | --- | --- | --- |
| IL-8: recombinant human IL-8 (R&D) added at 50 ng/ml | significantly more U87-S3C cells spread on myelin | – | – | – | – | – | – | – | – | – |
| LIF: cytokine ligand of leukemia inhibitory factor receptorβ (LIFRβ), used at 10 ng/ml | – | significantly less BrdU incorporation | significantly reduced | significant reduction in population growth | robustly induced STAT3 tyrosine phosphorylation | robustly induced STAT3 tyrosine phosphorylation | failed to effectively induce the STAT3 phosphorylation | significant reduction in growth | little effect on the proliferation | little effect on the proliferation |
